In patent US11332716B2, “Methods and compositions for producing pancreatic beta cells” (The Regents of the University of California, priority 2015, dated 2022):

Legend:
[1] = test system: Dox-inducible secondary mouse embryonic fibroblasts (MEFs); assay: Direct reprogramming of fibroblasts into definitive endoderm-like cells (Sox17/Foxa2); format: cell-based; settings: treatment in first two steps
Experimental: To extend and test the iPSC-factor-based lineage-specific reprogramming paradigm to endoderm, a two-step process was first devised to directly reprogram secondary MEF cells into definitive endoderm-like cells (DELCs). The first step (step I) involved culturing secondary MEF cells in media (Med-I) that is supplemented with 4 μg/ml Dox to initiate epigenetic activation. The second step (step II) was culturing the epigenetically activated cells in Med-II supplemented with 50 ng/ml Activin A and 1 mM LiCl (hereafter referred to as Activin/Li). […] Hereafter these Sox17/Foxa2 double-positive cells are referred to as definitive endoderm-like cells (DELCs).
To test this hypothesis, conditions were evaluated in which definitive endoderm induction factors (Activin/Li) were added to fibroblasts either after (Approach-I) or during (Approach II) iPSC factor expression, using Sox17 and Foxa2 expression as a measure of DELC induction (FIG. 1A).

[2] = test system: definitive endoderm-like cells (DELCs); assay: Induction of pancreatic progenitor-like cells from DELCs (Pdx1/Nkx6.1 staining); format: cell-based, mouse; settings: 400-compound collection; confirmed in larger-well cultures
Experimental: At the end of treatment, lineage specific markers were analyzed by immunostaining and/or real-time.
Primary antibodies used were Sox17 (R&D), Foxa2 (Millipore), Pdx1 (R&D), Hnf6 (Santa Cruz), Pax6 (Covance), Sox9 (Santa Cruz), Nkx6.1 (Developmental Studies Hybridoma Bank), Insulin (Dako), Glucagon (Sigma), Somatostatin (Abeam), Amylase (Abeam), and CK19 (Abcam). Nuclei were visualized by DAPI (Sigma-Aldrich) staining Images were captured using a Nikon Eclipse TE2000-U microscope.
An available drug collection of 400 compounds in the 48well format was screened to identify small molecules that induce high percentages of Pdx 1^+/NKx6.1^+ cells in DELC populations. Med-III medium (DMEM supplemented with 1 kB27, 2 mM GLUTAMAX™) was used as the basal condition and double staining of Pdx1 and Nkx 6.1 at 4 days post-induction was used as the readout.

[3] = test system: pancreatic progenitor-like cells (PPLCs); assay: Maturation of PPLCs into pancreatic-like cells (insulin/Pdx1, day 25); settings: 5 μM SB203580 or 280 μM pVc used individually
[4] = test system: Dox-inducible secondary mouse embryonic fibroblasts (MEFs); assay: Pdx1+/Nkx6.1+ colony number on day 16 after small molecules in first/second step; settings: 1 μM Bix-01294 D0 to D6; 280 μM pVc D0 to D12; readout day 16
p38 MAPK = p38 MAPK (Homo sapiens, UniProt Q16539); settings: read-out: IC50 for p38 MAPK; cited from earlier work
Axl = molecular target: T1, Axl (Homo sapiens, UniProt P30530); settings: 1 μM; cited from earlier work
T1 sequence (P30530 26-894): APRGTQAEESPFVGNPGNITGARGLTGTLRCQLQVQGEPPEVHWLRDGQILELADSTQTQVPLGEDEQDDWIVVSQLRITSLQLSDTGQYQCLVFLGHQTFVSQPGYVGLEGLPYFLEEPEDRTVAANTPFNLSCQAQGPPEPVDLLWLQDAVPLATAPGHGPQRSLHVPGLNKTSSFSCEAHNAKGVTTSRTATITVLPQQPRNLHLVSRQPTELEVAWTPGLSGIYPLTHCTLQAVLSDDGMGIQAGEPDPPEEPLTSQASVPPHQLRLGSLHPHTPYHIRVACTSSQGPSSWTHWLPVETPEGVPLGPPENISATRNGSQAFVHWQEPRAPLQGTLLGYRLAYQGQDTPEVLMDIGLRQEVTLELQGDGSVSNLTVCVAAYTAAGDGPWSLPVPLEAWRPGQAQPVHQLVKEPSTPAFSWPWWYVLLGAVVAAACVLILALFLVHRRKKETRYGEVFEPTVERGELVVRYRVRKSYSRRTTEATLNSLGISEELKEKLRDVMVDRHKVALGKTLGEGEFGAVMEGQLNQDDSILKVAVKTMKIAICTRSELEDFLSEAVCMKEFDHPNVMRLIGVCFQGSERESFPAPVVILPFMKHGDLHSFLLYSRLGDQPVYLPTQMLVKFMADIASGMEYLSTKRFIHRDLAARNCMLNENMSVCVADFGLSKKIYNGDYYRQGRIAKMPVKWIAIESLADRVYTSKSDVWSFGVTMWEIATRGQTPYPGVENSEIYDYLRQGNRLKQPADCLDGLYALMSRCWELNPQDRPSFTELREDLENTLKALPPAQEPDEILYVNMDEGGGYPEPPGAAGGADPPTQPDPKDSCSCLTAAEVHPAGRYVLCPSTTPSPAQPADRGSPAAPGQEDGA

[5] = test system: HDAC activity in HeLa extracts; settings: read-out: IC50 for inhibition of HDAC activity; cited from earlier work
[6] = test system: pancreatic endodermal progenitor cells (cPE cells); assay: Maturation of cPE cells into C-peptide positive cells, chemical screen; settings: added individually to basal pancreatic differentiation media
[7] = test system: pancreatic endodermal progenitor (cPE) cells; assay: Protocol 2 maturation of cPE cells into cPB cells (INSULIN mRNA, C-peptide cells)
[8] = test system: Src-dependent cell proliferation; settings: cited from earlier work
[9] = test system: histone deacetylases (HDACs); settings: isoform not stated; read-out: IC50 (histone deacetylase); cited from earlier work
γ-secretase = settings: read-out: IC50 for total β-amyloid; cited from earlier work
presenilase = settings: higher concentrations (20-400 μM); cited from earlier work
[10] = test system: MEL1 INS GFP/W hESC spheres; assay: hESC suspension differentiation, flow cytometry of PDX1 and NKX6.1; format: cell-based, human; settings: day 9.5
Text: Treatments consisted of combinations of Cyclopamine (C), Noggin (N), and retinoic acid (R) during days 6-8, followed by subdivision of each condition into three treatment groups during day 9-9.5. Group 1) continuation of day 6-8 treatment; Group 2) treatment with EGF and KGF (EK); Group 3) treatment with EGF, KGF, and Noggin (EKN). […] Data shown are representatives of results obtained in two independent experiments. […] FIG. 17B: Quantification of PDX1 (orange gate) and NKX6.1 (blue gate) protein expressing cells in individual conditions after 9.5 days of differentiation.
Suspension-based differentiations were carried out as follows. Briefly, confluent cultures were dissociated into single cell suspension by incubation with TrypLE (Gibco). […] To induce definitive endoderm differentiation, aggregates were collected 24 hours later in a 50 ml falcon tube, allowed to settle by gravity, washed once with PBS and re-suspended in d1 media (RPMI (Gibco) containing 0.2% FBS, 1:5000 ITS (Gibco), 100 ng/ml Activin A, and 50 ng/ml WNT3a (R&D systems)). Clusters from 3 wells were combined into 2 wells at this point and distributed into fresh low-attachment plates in 5.5 ml d1 media. Media thereafter was changed daily, by removing either 4.5 ml media (at the end of d1) or 5.5 ml media the following days and adding back 5.5 ml fresh media until day 9. After day 9, only 5 ml of media was removed and added daily.
Briefly, spheres were collected and allowed to settle by gravity. Clusters were washed once in PBS and dissociated by gentle pipetting after 12-15 minutes incubation in Accumax (Innovative Cell Technologies). For sorting, cell suspensions were filtered and re-suspended in FACS buffer consisting of phosphate-buffered saline (PBS) (UCSF cell culture facility) containing 2 mM EDTA (Ambion) and 1% BSA (Sigma). Dead cells were excluded by DAPI (Sigma) staining Cell sorting was performed on a FACS Aria II (BD Bioscience). […]

SAPK2/p38 = SAPK2/p38 (Homo sapiens, UniProt Q16539); settings: cited from earlier work
[11] = test system: MKN45, U87MG, MDA-MB-231, COLO205, and A549 tumor cells; settings: 20 mg/kg-60 mg/kg; c-Met-driven or non-c-Met-driven xenografts; cited from earlier work
[12] = test system: Human foreskin fibroblasts (CRL-2097); assay: Conversion of human fibroblasts into definitive endodermal progenitor cells (FOXA2 positive colonies); settings: Parnate, RG108 condition

Chain of p38 MAPK (Q16539 whole entry): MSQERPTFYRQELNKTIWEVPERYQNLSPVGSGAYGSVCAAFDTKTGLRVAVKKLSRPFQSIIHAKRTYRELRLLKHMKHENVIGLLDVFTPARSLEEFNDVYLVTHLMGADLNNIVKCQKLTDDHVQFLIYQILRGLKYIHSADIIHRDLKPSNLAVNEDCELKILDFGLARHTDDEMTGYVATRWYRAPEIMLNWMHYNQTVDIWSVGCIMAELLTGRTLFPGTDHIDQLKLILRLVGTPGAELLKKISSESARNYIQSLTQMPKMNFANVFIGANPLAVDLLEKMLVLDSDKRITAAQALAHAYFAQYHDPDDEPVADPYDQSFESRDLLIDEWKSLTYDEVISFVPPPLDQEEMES
Chain of SAPK2/p38 (Q16539 whole entry): as above

Compound: 2-Phospho-L-ascorbic acid trisodium salt [pVc]
- numbers of Sox17 and Foxa2 single positive and double positive cells [1]: no significant influence
- screen result: increase of Pdx1 and/or Nkx6.1 expression [2]: Confirmed hits
- number of insulin+/Pdx1+ double-positive cells [3]: significantly increased
- number of Pdx1+/Nkx6.1+ colonies [4]: ~4 fold

Compound: Cc1cccc(-c2nn(C(=S)Nc3ccccc3)cc2-c2ccnc3ccccc23)n1 [A83-01, 3-(6-Methyl-2-pyridinyl)-N-phenyl-4-(4-quinolinyl)-1H-pyrazole-1-carbothioamide]
- screen result: increase of Pdx1 and/or Nkx6.1 expression [2]: Confirmed hits

Compound: Cc1cccc(-c2n[nH]cc2-c2ccc3ncccc3n2)n1 [ALK5 inhibitor II, 2-(3-(6-methylpyridine-2-yl)-1H-pyrazol-4-yl)-1,5-naphthyridine]
- IC50 (p38 MAPK): > 16000 nM

Compound: S=C(NCc1ccc2c(c1)OCO2)N1CCN(c2ncnc3c2oc2ccccc23)CC1 [Amuvatinib]
- tyrosine phosphorylation of AXL (Axl): inhibits tyrosine phosphorylation of AXL

Compound: Nc1ccccc1NC(=O)CCCCCCC(=O)Nc1ccccc1 [BML-210, N1-(2-aminophenyl)-N8-phenyl-octanediamide]
- IC50 [5]: ~80000 nM

Compound: COC(=O)C1=C(C)NC(C)=C([N+](=O)[O-])C1c1ccccc1C(F)(F)F (stereo not drawn) [BayK-8644, 3-pyridinecarboxylic acid, 1,4-dihydro-2,6-dimethyl-5-nitro-4-(2-(trifluoromethyl)phenyl), methyl ester]
- percentage of C-peptide positive cells, individual supplementation [6]: effective in increasing
- number of C-peptide positive cells co-expressing PDX1 and NKX6.1 [7]: increased
- expression of the INSULIN gene (mRNA) ([7]; day 21, compared to DMSO controls): promoted expression

Compound: COc1cc2nc(N3CCCN(C)CC3)nc(NC3CCN(Cc4ccccc4)CC3)c2cc1OC [Bix-01294]
- numbers of Sox17 and Foxa2 single positive and double positive cells [1]: no significant influence
- number of Pdx1+/Nkx6.1+ colonies [4]: about 3 fold

Compound: COc1cc(Nc2c(C#N)cnc3cc(OCCCN4CCN(C)CC4)c(OC)cc23)c(Cl)cc1Cl [Bosutinib]
- IC50 [8]: 100 nM

Compound: CC1(C)NC(=O)C(CCCCCC(=O)[C@H]2CO2)NC(=O)C2CCCN2C(=O)[C@@H](Cc2ccccc2)NC1=O (stereo partly drawn) [Chlamydocin, (3R)-3-benzyl-6,6-dimethyl-9-[6-[(2R)-oxiran-2-yl]-6-oxohexyl]-1,4,7,10-tetrazabicyclo[10.3.0]pentadecane-2,5,8,11-tetrone]
- IC50 [9]: ~0.15 nM

Compound: C[C@H](NC(=O)Cc1cc(F)cc(F)c1)C(=O)N[C@H]1N=C(c2ccccc2)c2ccccc2N(C)C1=O [Compound E]
- IC50 (γ-secretase): 0.3 nM
- effect on presenilase activity (presenilase): only weakly affects
- percentage of C-peptide positive cells, individual supplementation [6]: effective in increasing

Compound: CC1=C2C[C@H]3[C@@H](CC=C4C[C@@H](O)CC[C@@]43C)[C@@H]2CC[C@]12O[C@@H]1C[C@H](C)CN[C@H]1[C@H]2C [Cyclopamine]
- generation of PDX1+ cells over base media alone ([10]; alone, conditions 2 and 3): did not result in enhanced generation

Compound: NC(=O)c1ccc(-c2nc(-c3ccc4c(c3)OCCO4)c(-c3ccccn3)[nH]2)cc1 [D 4476, 4-[4-(2,3-Dihydro-1,4-benzodioxin-6-yl)-5-(2-pyridinyl)-IH-imidazol-2-yl]benzamide]
- selectivity over SAPK2/p38 (SAPK2/p38): greater than 20 fold

Compound: CC1NC(=O)C(C)NC(=O)C2CCCN2C(=O)C(CCCCCCC(=O)C2CO2)NC1=O [HC Toxin, (6R,9S,14aR)-3,6R-dimethyl-9S-(7-((S)-oxiran-2-yl)-7-oxoheptyl)decahydropyrrolo[1,2-a][1,4,7,10]tetraazacyclododecine-1,4,7, 10-tetranone]
- IC50 [9]: 30 nM

Compound: Cc1c(C(=O)Nc2ccc(N3C[C@@H](C)O[C@@H](C)C3)nc2)cccc1-c1ccc(OC(F)(F)F)cc1 [LDE225]
- screen result: increase of Pdx1 and/or Nkx6.1 expression [2]: Confirmed hits

Compound: Nc1ccccc1NC(=O)c1ccc(CNc2nccc(-c3cccnc3)n2)cc1 [MGCD0103, N-(2-aminophenyl)-4-[[(4-pyridin-3-ylpyrimidin-2-yl)amino]methyl]benzamide]
- IC50 [9]: ~100 nM

Compound: Cn1cnc(-c2cc3nccc(Oc4ccc(NC(=S)NC(=O)Cc5ccccc5)cc4F)c3s2)c1 [MGCD-265]
- tumor growth and c-Met signaling [11]: inhibits tumor growth and c-Met signaling

Compound: Nc1ccccc1NC(=O)c1ccc(CNC(=O)OCc2cccnc2)cc1 [MS-27-275]
- IC50 [9]: 100 to 1000 nM

Compound: CCNC(=O)[C@H]1O[C@@H](n2cnc3c(N)ncnc32)C(O)C1O (stereo partly drawn) [NECA, 5′-N-ethylcarboxamidoadenosine]
- increase of conversion rate over the basal protocol ([12]; NECA added to NaB): 5 fold
- further increase of conversion rate over the improved condition ([12]; added to NaB): 2 fold

Compound: C[S+]([O-])c1ccc(-c2nc(-c3ccc(F)cc3)c(-c3ccncc3)[nH]2)cc1 (stereo not drawn) [SB203580, 4-(4-fluorophenyl)-2-(4-methylsulfinylphenyl)-5-(4-pyridyl)-1H-imidazole]
- number of insulin+/Pdx1+ double-positive cells [3]: significantly increased

Compound: CC(/C=C/C(=O)NO)=C\[C@@H](C)C(=O)c1ccc(N(C)C)cc1 [Trichostatin A, (R,2E,4E)-6-(4-(dimethylamino)benzoyl)-N-hydroxy-4-methylhepta-2,4-dienamide]
- IC50 [9]: ~1.8 nM

Compound: CC1=C(/C=C/C(C)=C/C=C/C(C)=C/C(=O)O)C(C)(C)CCC1 [retinoic acid]
- PDX1 positive progenitors ([10]; days 6-8, alone or in combination (conditions 4, 5, 6), group 1): > 88%
